In patent US5384113A, “Stabilizers to prevent autoradiolysis of radiolabeled peptides and proteins” (priority 1993, dated 1995):

Columns and labels:
[1] = Stability (radiochemical purity) of 111In DTPA-octreotide solution at room temperature by reverse-phase HPLC with radiometric detector; assay type: physicochemical; conditions: alone or in combination with other stabilizers; summary of Examples 1-7
Method: (§1) To a lyophilized kit containing 10 μg DTPA-octreotide (N-[3,6,9,9-tetrakis(carboxymethyl)-3,6,9-triazanonanoyl]-D-phenylalanyl-L -hemicystyl-L-phenylalanyl-D-tryptophyl-L-lysyl-L-threonyl-L-hemicydyyl-L-t hreoninol cyclic (2→7) disulfide, MW=1394.60 gm/mol), 5.6 mg trisodium citrate dihydrate, and 0.4 mg citric acid monohydrate was added 1.0 ml of 0.02M HCl containing 4.70 mCi of ^111 In. The pH of the solution was 4.5. The solution was kept at room temperature and monitored for the amount of ^111 In DTPA-octreotide using reverse-phase HPLC and a Beckman 170 radiometric detector. […]
as §1, with “dihydrate,” for “dihydrate, and”, “monohydrate, and 1.0 mg inositol” for “monohydrate”, “6.04” for “4.70”, “The pH of the solution was 4.5.” left out

somatostatin receptors = conditions: variety of human tumors; cited from earlier work

| Structure (SMILES) | Prevention of radiolysis of radiolabeled peptides (stabilizer effect) [1] | Binding affinity to somatostatin receptors (somatostatin receptors) |
| --- | --- | --- |
| O=C(O)c1cc(O)ccc1O [gentisic acid, 2,5-dihydroxybenzoic acid] | very effective at preventing radiolysis |  |
| C[C@@H](O)[C@@H]1NC(=O)[C@H](CCCCN)NC(=O)[C@@H](Cc2c[nH]c3ccccc23)NC(=O)[C@H](Cc2ccccc2)NC(=O)[C@@H](NC(=O)[C@H](N)Cc2ccccc2)CSSC[C@@H](C(=O)N[C@H](CO)[C@@H](C)O)NC1=O [octreotide] |  | very high binding affinity |
